Data reported in patent US11339169B2, “P2X3 and/or P2X2/3 compounds and methods” (Asana BioSciences, LLC, priority 2016, dated 2022).

Tests used:
hP2X3 = target: T1, hP2X3 (Homo sapiens, UniProt P56373); assay: FLIPR intracellular calcium assay, hP2X3; format: cell-based; conditions: human P2X3-HEK cells, agonist at EC75
T1 construct: host or cells: HEK (hP2X3-HEK)
T1 sequence (P56373 1-397): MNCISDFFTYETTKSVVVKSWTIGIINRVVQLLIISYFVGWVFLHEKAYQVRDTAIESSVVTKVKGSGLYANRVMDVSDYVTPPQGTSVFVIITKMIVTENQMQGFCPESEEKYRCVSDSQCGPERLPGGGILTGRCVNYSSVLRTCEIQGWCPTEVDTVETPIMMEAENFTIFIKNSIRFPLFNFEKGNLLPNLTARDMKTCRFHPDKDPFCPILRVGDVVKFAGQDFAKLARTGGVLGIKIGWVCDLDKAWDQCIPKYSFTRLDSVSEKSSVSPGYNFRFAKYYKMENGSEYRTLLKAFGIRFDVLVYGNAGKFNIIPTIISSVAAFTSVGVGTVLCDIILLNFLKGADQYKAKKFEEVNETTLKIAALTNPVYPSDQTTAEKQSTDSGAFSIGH
From the text: (§1) The FLIPR® assay utilizes cells which express human or rat P2X3 or P2X2/3 receptors. Recombinant cells expressing hP2X3 (Cat #6188) and hP2X2/3 (Cat #6179) were procured from Chantest Corp. Rat P2X2 (NCBI Accession No: U14414) was amplified by PCR from PC12 cDNA (a rat adrenal medulla cell line). The PCR product obtained containing the protein coding sequence of rat P2X2 was cloned into EcoRV-digested and dephosphorylated vector plRES-puro3 within the multiple cloning site (MCS). See, FIG. 1A.
(§2) (i) Intracellular Calcium Assay Protocol for Screening Compounds
(§3) Cryo-vial containing 6×10^6 cells (human P2X3-HEK/human P2X2/3-TRex293/rat P2X2/3-TRex293/rat P2X3 TRex-CHO) was thawed in a 37° C. water bath. Cells were suspended in 20 mL of respective cell plating media (See annexure for composition) in a 50 mL centrifuge tube. The cell viability was checked with the help of Trypan Blue dye. Upon washing, cells were plated in a black 384-well clear bottomed, sterile poly-D-lysine coated plate such that, each well contained 10,000 cells (15,000/well for hP2X3) in 30 μL cell plating media. The plate was incubated in a 5% CO2 incubator at 37° C. for 24 h.
(§4) The next day, prior to the assay, the cell plating media was removed from each well by decanting and gentle tapping. Thirty μL of FLIPR Calcium 4 dye solution was added to each well. The plate was incubated at 37° C. for 45 min (60 min for hP2X3). The plate was next equilibrated at room temperature for 15 minutes before placing it in a 384 well FLIPR for the assay.
(§5) Compounds were dissolved in DMSO and serially diluted following 11 point half log (3.16 fold) dilution with a starting concentration of 2 mM. Dilutions were mixed with assay buffer just before performing the assay.
(§6) Compounds were added to the respective wells of the assay-ready cell plate with the help of the FLIPR and fluorescence readings were captured for 5 min to observe any possible agonistic property of the compounds. The plate was then incubated at room temperature for 15 min. The cells were stimulated with respective agonist EC75 concentration and the fluorescence readings were captured for another 5 min by FLIPR. The difference in fluorescence readings in presence of the compounds were compared with that of the control wells (wells having no compound) to calculate the inhibitory potency of the compounds. The IC50 values of the compounds were determined using the Graph pad Prism software.
(§7) (ii) Cell Plating Media for hP2X3-HEK and hP2X2/3-TRex293 Cells • DMEM/F12 (1:1) HAM media (Invitrogen; Cat #11039) • 1×NEAA (Invitrogen; Cat #11140) • 25 mM HEPES (Invitrogen; Cat #15630) • 1 mM sodium pyruvate (Invitrogen; Cat #11360) • 10% tetracycline negative FBS (PAA; Cat #A15-209) • 1 μg/mL doxycycline (Clontech; Cat #63131) [for hP2X2/3-TRex293 cells only]
(§8) (v) Assay Buffer Composition • HBSS (Invitrogen Cat #14025) • 20 mM HEPES (Invitrogen Cat #15630) • 0.01% F127 (Sigma Cat #P2443) • 1.8 mM CaCl2 (Sigma Cat #C5080) • pH adjusted to 7.4
(§9) (vi) Dye Solution Composition • 1× FLIPR Calcium 4 dye in assay buffer (Molecular devices Cat #R8141) • 1.8 mM Probenecid (Sigma Cat #P8761) • pH adjusted to 7.4

hP2X2/3 = target: T2, hP2X2/3 (Homo sapiens, UniProt P56373+Q9UBL9); assay: FLIPR intracellular calcium assay, hP2X2/3; format: cell-based; conditions: human P2X2/3-TRex293 cells, agonist at EC75
T2 construct: host or cells: TRex293 (hP2X2/3-TRex293), doxycycline-induced
T2 sequence (P56373 1-397): T1 sequence (P56373 1-397)
T2 sequence (Q9UBL9 1-471): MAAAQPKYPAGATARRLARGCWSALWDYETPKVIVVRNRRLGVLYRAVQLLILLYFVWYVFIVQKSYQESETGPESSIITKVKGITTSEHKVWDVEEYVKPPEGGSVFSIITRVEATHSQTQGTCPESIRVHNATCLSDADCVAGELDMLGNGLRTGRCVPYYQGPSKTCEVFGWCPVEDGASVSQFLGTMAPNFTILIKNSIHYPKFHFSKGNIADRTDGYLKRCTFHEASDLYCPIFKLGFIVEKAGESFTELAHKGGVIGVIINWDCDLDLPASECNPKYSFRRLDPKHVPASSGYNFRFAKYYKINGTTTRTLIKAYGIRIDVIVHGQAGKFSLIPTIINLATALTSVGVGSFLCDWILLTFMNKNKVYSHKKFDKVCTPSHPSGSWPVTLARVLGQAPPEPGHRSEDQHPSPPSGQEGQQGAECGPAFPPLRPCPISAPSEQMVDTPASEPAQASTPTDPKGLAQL
From the text: as §1, §2, §3, §4, §5, §6, §7, §8, §9

Row | Structure (SMILES) | IC50 (hP2X3) | IC50 (hP2X2/3)
1 | CCC(C)n1nc2c(N[C@H](C)c3cnc4ccccc4c3)nc(N3CCN(C(C)=O)CC3)nc2c1C#N (some centres unmarked) [Example 106] | 1 to 100 nM | 1000 to 10000 nM
2 | CC(=O)N1CCN(c2nc(N[C@H](C)c3cnc4ccccc4c3)c3c(cnn3C(C)C(C)C)n2)CC1 (some centres unmarked) [Example 60] | 1 to 100 nM | 100 to 1000 nM
3 | CCC(C)n1ncc2nc(N3CCN(C(C)=O)CC3)nc(N[C@@H](C)c3cnc4ccccc4c3)c21 (some centres unmarked) [Example 18] | 100 to 1000 nM | 1000 to 10000 nM
4 | CC(=O)N1CCN(c2nc(NC(C)(C)Cc3ccc(Cl)cc3)c3c(cnn3C(C)C)n2)CC1 [Example 13] | 1 to 100 nM | 1000 to 10000 nM
5 | CC[C@@H](C)n1ncc2nc(N3CCN(C(C)=O)CC3)nc(N[C@H](C)c3cnc4ccccc4c3)c21 [Example 21] | 1 to 100 nM | 1000 to 10000 nM
6 | C[C@@H](Nc1nc(N2CCN(C)C(=O)C2)nc2cnn(C3CCC3)c12)c1cnc2ccccc2c1 [Example 49] | 1 to 100 nM | 1000 to 10000 nM
7 | CC(=O)N1CCN(c2nc(NC(C)c3cnc4ccccc4c3)c3nn(C(C)C)c(Br)c3n2)CC1 (centres unmarked) [Example 94] | 1 to 100 nM | 1000 to 10000 nM
8 | CCC(CC)n1ncc2nc(N3CCN(C(C)=O)CC3)nc(N[C@@H](c3cnc4ccccc4c3)C3CC3)c21 [Example 44] | 1 to 100 nM | 1 to 100 nM
9 | CC(=O)N1CCN(c2nc(NCc3cnc4ccccc4c3)c3c(cnn3C(C)C)n2)CC1 [Example 14] | 100 to 1000 nM | > 10000 nM
10 | CC(C)n1ncc2nc(N3CCN(C(N)=O)CC3)nc(N[C@@H](c3cnc4ccccc4c3)C3CC3)c21 [Example 66] | 1 to 100 nM | 100 to 1000 nM
11 | CCC(C)n1ncc2nc(N3CCN(C(C)=O)CC3)nc(N[C@H](C)c3cnc4ccccc4c3)c21 (stereo partly drawn) [Example 89, 1-{4-[1-sec-Butyl-7-((R)-1-quinolin-3-yl-ethylamino)-1H-pyrazolo[4,3-d]pyrimidin-5-yl]-piperazin-1-yl}-ethanone] | 1 to 100 nM | 100 to 1000 nM
12 | CC(=O)N1CCN(c2nc(N[C@H](C)c3cnc4ccccc4c3)c3c(cnn3CC3CCC3)n2)CC1 [Example 32] | 1 to 100 nM | 1000 to 10000 nM
13 | CC(=O)N1CCN(c2nc(NC(C)c3cnc4ccccc4c3)c3nn(C(C)C)c(C)c3n2)CC1 (centres unmarked) [Example 96] | 1 to 100 nM | > 10000 nM
14 | CCC(CC)n1ncc2nc(N3CCN(C(C)=O)CC3)nc(NC(C)c3ccc4oc(C5CC5)cc4c3)c21 (centres unmarked) [Example 55] | 1 to 100 nM | 100 to 1000 nM
15 | CCC(C)n1cc2nc(N3CCN(C(C)=O)CC3)nc(N[C@H](C)c3cnc4ccccc4c3)c2n1 (some centres unmarked) [Example 5] | 1 to 100 nM | > 10000 nM
16 | CCOc1ccc(C(C)Nc2nc(N3CCN(C(C)=O)CC3)nc3cnn(C(CC)CC)c23)cc1 (centres unmarked) [Example 30] | 1 to 100 nM | 1000 to 10000 nM
17 | CC[C@H](C)n1ncc2nc(N3CCN(C(N)=O)CC3)nc(N[C@@H](c3cnc4ccccc4c3)C3CC3)c21 [Example 69] | 1 to 100 nM | 1 to 100 nM

Row | Structure (SMILES) | IC50 (hP2X3) | IC50 (hP2X2/3)
18 | CC(=O)N1CCN(c2nc(N[C@H](C)c3cnc4ccccc4c3)c3nn(CC(C)C)cc3n2)CC1 [Example 7] | 100 to 1000 nM | > 10000 nM
19 | CCC(C)n1ncc2nc(N3CCN(C(C)=O)CC3)nc(NC(c3ccc(-c4ccccc4)nc3)C3CC3)c21 (centres unmarked) [Example 58] | 1 to 100 nM | 1000 to 10000 nM
20 | CC[C@H](C)n1ncc2nc(N3CCN(C(C)=O)CC3)nc(NC(CO)c3cnc4ccccc4c3)c21 (some centres unmarked) [Example 81] | 1 to 100 nM | 100 to 1000 nM
21 | CCC(C)n1ncc2nc(N3CCN(C(N)=O)CC3)nc(N[C@H](C)c3cn4ccc(C)cc4n3)c21 (some centres unmarked) [Example 84] | 1 to 100 nM | 1000 to 10000 nM
22 | CC(=O)N1CCN(c2nc(N[C@H](C)c3cnc4ccccc4c3)c3c(cnn3C(C3CC3)C3CC3)n2)CC1 [Example 34] | 1 to 100 nM | 1 to 100 nM
23 | CC(=O)N1CCN(c2nc(N[C@H](C)c3cnc4ccccc4c3)c3c(cnn3C(C)C)n2)CC1 [Example 12] | 1 to 100 nM | 1000 to 10000 nM
24 | CCC(C)n1ncc2nc(-c3cnn(CCF)c3)nc(N[C@@H](c3cnc4ccccc4c3)C3CC3)c21 (some centres unmarked) [Example 116] | 1 to 100 nM | 1 to 100 nM
25 | CC(=O)N1CCN(c2nc(N[C@H](C)c3cnc4ccccc4c3)c3nn(C(C)C)cc3n2)CC1 [Example 1, 1-{4-[2-Isopropyl-7-((R)-1-quinolin-3-yl-ethylamino)-2H-pyrazolo[4,3-d]pyrimidin-5-yl]-piperazin-1-yl}-ethanone] | 1 to 100 nM | > 10000 nM
26 | COCC(C)n1ncc2nc(N3CCN(C(C)=O)CC3)nc(N[C@H](C)c3cnc4ccccc4c3)c21 (some centres unmarked) [Example 24] | 1 to 100 nM | 1000 to 10000 nM
27 | CCC(CC)n1ncc2nc(N3CCN(C(C)=O)CC3)nc(N[C@H](C)c3ccc4ccccc4c3)c21 [Example 40] | 1 to 100 nM | 100 to 1000 nM
28 | CCC(CC)n1ncc2nc(N3CCN(C(C)=O)CC3)nc(NC(C)c3ccc4occc4c3)c21 (centres unmarked) [Example 39] | 100 to 1000 nM | 1000 to 10000 nM
29 | CCC(C)n1ncc2nc(-c3cnn(CC)c3)nc(N[C@@H](c3cnc4ccccc4c3)C3CC3)c21 (some centres unmarked) [Example 115] | 1 to 100 nM | 100 to 1000 nM
30 | CC(=O)N1CCN(c2nc(N[C@H](C)c3cnc4ccccc4c3)c3c(cnn3C3CCCC3)n2)CC1 [Example 25] | 1 to 100 nM | 1000 to 10000 nM
31 | CCC(CC)n1ncc2nc(N3CCN(C(C)=O)CC3)nc(N[C@H](C)c3cnc4ccccc4c3)c21 [Example 22] | 1 to 100 nM | 1 to 100 nM
32 | CCC(C)n1ncc2nc(-n3cc(C(N)=O)nn3)nc(N[C@@H](c3cnc4ccccc4c3)C3CC3)c21 (stereo partly drawn) [Example 126, 1-{1-sec-Butyl-7-[((R)-cyclopropyl-quinolin-3-yl-methyl)-amino]-1H-pyrazolo[4,3-d]pyrimidin-5-yl}-1H-[1,2,3]triazole-4-carboxylic Acid Amide] | 1 to 100 nM | 1000 to 10000 nM
33 | CCOc1ccc([C@H](C)Nc2nc(N3CCN(C(C)=O)CC3)nc3cnn(C(CC)CC)c23)cc1 [Example 33] | 1 to 100 nM | 1000 to 10000 nM
34 | CCC(C)n1ncc2nc(N3CCN(C(N)=NC#N)CC3)nc(N[C@@H](c3cnc4ccccc4c3)C3CC3)c21 (stereo partly drawn) [Example 110, 4-(1-sec-butyl-7-{[(R)-cyclopropyl(quinolin-3-yl)methyl]amino}-1H-pyrazolo[4,3-d]pyrimidin-5-yl)-N′-cyanopiperazine-1-carboximidamide] | 1 to 100 nM | 1 to 100 nM
